Laboratory results from EP2057185B1, “POLYMYXIN DERIVATIVES AND USES THEREOF” (Northern Antibiotics Oy, priority 2006, dated 2008).
Bridge positions count the residues as written; N and C are the ends. Square brackets hold non-standard residues; d marks the D form. Peptide text beside a SMILES is read from it. Dab = NCC[C@H](N)C(=O)O; Abu = CC[C@H](N)C(=O)O

What was measured:
K. pneumoniae ATCC13883 = assay: MIC by E-strips on Mueller-Hinton agar with or without NAB7061 (4 µg/ml); format: cell-based, Klebsiella pneumoniae; conditions: ratio of the MIC of the antibiotic in the absence of NAB 7061 to that in the presence of 4 µg/ml of NAB 7061; K. pneum. ATCC 13883
Method: (§1) MICs were determined by using E-strips (Biodisk Ltd., Solna, Sweden) according to the manufacturer's instructions.
(§2) The strains originated from ATCC (11 strains), CCUG (11 strains), and NCTC (The National Collection of Type Cultures, Colindale, U.K.; 2 strains). Eight strains (the F-strains) were purchased from Mobidiag Ltd., Helsinki, Finland.

E. coli ATCC25922 = assay: as above; format: cell-based, Escherichia coli; conditions: ratio of the MIC of the antibiotic in the absence of NAB 7061 to that in the presence of 4 µg/ml of NAB 7061; E. coli ATCC 25922
Method: as §1, §2

E. coli IH3080 [1] = assay: as above; format: cell-based, Escherichia coli; conditions: ratio of the MIC of the antibiotic in the absence of NAB 7061 to that in the presence of 4 µg/ml of NAB 7061; E. coli IH 3080
Method: as §1, §2

E. cloacae ATCC23355 = assay: as above; format: cell-based, Enterobacter cloacae; conditions: ratio of the MIC of the antibiotic in the absence of NAB 7061 to that in the presence of 4 µg/ml of NAB 7061; E. cloacae ATCC 23355
Method: as §1, §2

Ac. baumannii F264 = assay: as above; format: cell-based, Acinetobacter baumannii; conditions: A. baumannii F264; NAB 7061 4 µg/ml
Method: as §1, §2

Ac. baumannii F263 = assay: as above; format: cell-based, Acinetobacter baumannii; conditions: A. baumannii F263; NAB 7061 4 µg/ml
Method: as §1, §2

E. coli IH3080 [2] = assay: Growth inhibition around wells on LB agar plates; format: cell-based, Escherichia coli; conditions: 18 h at 37°C; for Antibacterial activity at 4 µg: growth inhibition area around a well containing 4 µg of compound; for Antibacterial activity at 10 µg: growth inhibition area around a well containing 10 µg of compound
Method: Peptides synthesized in Example 1, all carrying at least two (2) but not more than three (3) positive charges, were studied for their ability to inhibit the growth of E. coli. This was tested employing LB agar (LB Agar Lennox, Difco, BD, Sparks, MD, U.S.A) plates. The indicator organism E. coli IH3080 (K1:O18) was an encapsulated strain originally isolated from a neonate suffering from meningitis (Vaara et al. 1984) and obtained from National Public Health Institute, Helsinki, Finland.
(§3) From an overnight-grown culture of IH3080 on LB agar, a suspension of approx. 10^8 cells/ml was prepared in 0.9% NaCl. Aliquots of this suspension were then pipetted on the agar plates and the plates were gently shaken to spread the suspension evenly on the entire surface of the plate. Thereafter, the unabsorbed part of the suspension was removed by using a Pasteur pipette. After the surface had dried, small wells (diameter, 2 mm) were drilled on the plates (five wells per plate) by using a sterile sharp-edged narrow metal tube, single-use pipette tip, and vacuum suction. […] Controls included 0.9% NaCl solution without the compound to be tested. The plates were then incubated for 18 h at 37°C whereafter the diameters of growth inhibition zones around each well were measured; the diameter of the well itself was […]. Finally, the diameters were converted to surface areas of growth inhibition (in square mm).

E. coli IH3080 [3] = assay: Growth inhibition around wells on LB plates containing rifampin (sensitization); format: cell-based, Escherichia coli; conditions: well containing 4 µg of compound; for Antibacterial activity in the presence of rifampin concn (µg/ml) of 0: plates with no rifampin; for Antibacterial activity in the presence of rifampin concn (µg/ml) of 0.1: rifampin 0.1 µg/ml; for Antibacterial activity in the presence of rifampin concn (µg/ml) of 1.0: rifampin 1.0 µg/ml
Method: as §3, with “mm). […] Louis, MO, U.S.A).” for “mm).”

[4] = tested on: E. coli (ATCC25922 and IH3080), K. pneumoniae ATCC13883, and E. cloacae ATCC23355; assay: E-strip MIC, summary over the tested strains of Example 7; format: cell-based; conditions: range over the tested strains; NAB7061 4 µg/ml
Method: as §1

Compound | Sensitization factor (K. pneumoniae ATCC13883) | Sensitization factor (E. coli ATCC25922) | Sensitization factor (E. coli IH3080 [1]) | Sensitization factor (E. cloacae ATCC23355) | further results
CC(=O)NC[C@H]1CN(c2ccc(N3CCOCC3)c(F)c2)C(=O)O1 [Linezolid, linezolid] | > 4 | > 11 | > 8 | > 8 | –
C[C@@H](O)[C@H]1C(=O)N2C(C(=O)O)=C(SCCN=CN)C[C@H]12 [imipenem] | – | – | – | – | MIC (µg/ml) at the indicated concn (µg/ml) of NAB 7061: 4 (Ac. baumannii F264): 6 µg/mL; MIC (µg/ml) at the indicated concn (µg/ml) of NAB 7061: 4 (Ac. baumannii F263): 8 µg/mL
CCN1CCN(C(=O)N[C@@H](C(=O)N[C@@H]2C(=O)N3[C@@H]2SC(C)(C)[C@@H]3C(=O)O)c2ccccc2)C(=O)C1=O [piperacillin] | – | < 2 | – | – | –
NC[C@H]1O[C@H](O[C@H]2[C@H](O)[C@@H](O[C@H]3O[C@H](CO)[C@@H](O)[C@H](N)[C@H]3O)[C@H](N)C[C@@H]2N)[C@H](N)C[C@@H]1O [tobramycin] | – | < 2 | – | – | –
CO/N=C(\C(=O)N[C@@H]1C(=O)N2C(C(=O)O)=C(COC(C)=O)CS[C@H]12)c1csc(N)n1 [cefotaxime] | – | < 2 | – | – | –
CC[C@@H]1NC(=O)[C@H](CC(C)C)NC(=O)[C@@H](Cc2ccccc2)NC(=O)[C@H](CCN)NC(=O)[C@@H](NC(=O)[C@H](CCN)NC(=O)[C@@H](N)[C@@H](C)O)CCNC(=O)[C@H]([C@@H](C)O)NC(=O)[C@H](CC)NC1=O [NAB 701] (H-T[Dab][Dab][Dab][dF]L[Abu][Abu]T; lactam 3-C) | – | – | – | – | Antibacterial activity at 4 µg (E. coli IH3080 [2]): 0 square millimeters; Antibacterial activity at 10 µg (E. coli IH3080 [2]): 0 square millimeters; Antibacterial activity in the presence of rifampin concn (µg/ml) of 0 (E. coli IH3080 [3]): 0 square millimeters; Antibacterial activity in the presence of rifampin concn (µg/ml) of 0.1 (E. coli IH3080 [3]): 0 square millimeters; Antibacterial activity in the presence of rifampin concn (µg/ml) of 1.0 (E. coli IH3080 [3]): 0 square millimeters
CC(C)(O/N=C(\C(=O)N[C@@H]1C(=O)N2C(C(=O)[O-])=C(C[n+]3ccccc3)CS[C@H]12)c1csc(N)n1)C(=O)O [ceftazidime] | – | < 2 | – | – | –
C[C@@H](O)[C@H]1C(=O)N2C(C(=O)O)=C(S[C@@H]3CN[C@H](C(=O)N(C)C)C3)[C@H](C)[C@H]12 [meropenem] | – | < 2 | – | – | MIC (µg/ml) at the indicated concn (µg/ml) of NAB 7061: 4 (Ac. baumannii F264): 4 µg/mL; MIC (µg/ml) at the indicated concn (µg/ml) of NAB 7061: 4 (Ac. baumannii F263): 6 µg/mL
C/C(=C\C(=O)OCCCCCCCCC(=O)O)C[C@@H]1OC[C@H](C[C@@H]2O[C@H]2[C@@H](C)[C@H](C)O)[C@@H](O)[C@H]1O [Mupirocin, mupirocin] | 24 - 32 | 64 - 170 | 64 - 85 | 250 - 512 | Sensitization factor [4]: 24-512
C[C@H]1COc2c(N3CCN(C)CC3)c(F)cc3c(=O)c(C(=O)O)cn1c23 [levofloxacin] | – | < 2 | – | – | –
CC[C@H]1OC(=O)[C@H](C)[C@@H](O[C@H]2C[C@@](C)(OC)[C@@H](O)[C@H](C)O2)[C@H](C)[C@@H](O[C@@H]2O[C@H](C)C[C@H](N(C)C)[C@H]2O)[C@](C)(O)C[C@@H](C)C(=O)[C@H](C)[C@@H](O)[C@]1(C)O [Erythromycin, erythromycin] | 24 - 48 | 32 - 48 | 32 - 42 | 21 - 43 | Sensitization factor [4]: 21-48
CC[C@H]1OC(=O)[C@H](C)[C@@H](O[C@H]2C[C@@](C)(OC)[C@@H](O)[C@H](C)O2)[C@H](C)[C@@H](O[C@@H]2O[C@H](C)C[C@H](N(C)C)[C@H]2O)[C@](C)(O)C[C@@H](C)CN(C)[C@H](C)[C@@H](O)[C@]1(C)O [Azithromycin, azithromycin] | 31 - 43 | 24 - 64 | 31 - 94 | 32 | Sensitization factor [4]: 31-94
CN[C@H](CC(C)C)C(=O)N[C@H]1C(=O)N[C@@H](CC(N)=O)C(=O)N[C@H]2C(=O)N[C@H]3C(=O)N[C@H](C(=O)N[C@H](C(=O)O)c4cc(O)cc(O)c4-c4cc3ccc4O)[C@H](O)c3ccc(c(Cl)c3)Oc3cc2cc(c3O[C@@H]2O[C@H](CO)[C@@H](O)[C@H](O)[C@H]2O[C@H]2C[C@](C)(N)[C@H](O)[C@H](C)O2)Oc2ccc(cc2Cl)[C@H]1O [Vancomycin, vancomycin] | 1 | 5 | 2.5 | 32 | –
quinupristin-dalfopristin [Quinupristin-dalfopr.] | 1 | > 21 | > 21 | > 5 | –
CC(=O)O[C@H]1C[C@@]2(C)[C@@H](C[C@@H](O)[C@H]3[C@@]4(C)CC[C@@H](O)[C@@H](C)[C@@H]4CC[C@@]32C)/C1=C(\CCC=C(C)C)C(=O)O [Fusidic acid, fusidic acid] | > 4 | > 43 | > 43 | > 8 | –
CC[C@H](NC(=O)[C@@H](N)[C@@H](C)O)C(=O)N[C@H]1CCNC(=O)[C@H]([C@@H](C)O)NC(=O)[C@H](CCN)NC(=O)[C@H](CCN)NC(=O)[C@H](CC(C)C)NC(=O)[C@@H](Cc2ccccc2)NC(=O)[C@H](CCN)NC1=O [NAB 704] (H-T[Abu][Dab][Dab][dF]L[Dab][Dab]T; lactam 3-C) | – | – | – | – | Antibacterial activity at 4 µg (E. coli IH3080 [2]): 0 square millimeters; Antibacterial activity at 10 µg (E. coli IH3080 [2]): 0 square millimeters; Antibacterial activity in the presence of rifampin concn (µg/ml) of 0 (E. coli IH3080 [3]): 0 square millimeters; Antibacterial activity in the presence of rifampin concn (µg/ml) of 0.1 (E. coli IH3080 [3]): 0 square millimeters; Antibacterial activity in the presence of rifampin concn (µg/ml) of 1.0 (E. coli IH3080 [3]): 24 square millimeters
CC[C@H](NC(=O)[C@@H](NC(=O)[C@@H](N)CC)[C@@H](C)O)C(=O)N[C@H]1CCNC(=O)[C@H]([C@@H](C)O)NC(=O)[C@H](CCN)NC(=O)[C@H](CCN)NC(=O)[C@H](CC(C)C)NC(=O)[C@@H](Cc2ccccc2)NC(=O)[C@H](CCN)NC1=O [NAB 705] (H-[Abu]T[Abu][Dab][Dab][dF]L[Dab][Dab]T; lactam 4-C) | – | – | – | – | Antibacterial activity at 4 µg (E. coli IH3080 [2]): 0 square millimeters; Antibacterial activity at 10 µg (E. coli IH3080 [2]): 0 square millimeters; Antibacterial activity in the presence of rifampin concn (µg/ml) of 0 (E. coli IH3080 [3]): 0 square millimeters; Antibacterial activity in the presence of rifampin concn (µg/ml) of 0.1 (E. coli IH3080 [3]): 0 square millimeters; Antibacterial activity in the presence of rifampin concn (µg/ml) of 1.0 (E. coli IH3080 [3]): 5 square millimeters
CO[C@H]1/C=C/O[C@@]2(C)Oc3c(C)c(O)c4c(O)c(c(/C=N/N5CCN(C)CC5)c(O)c4c3C2=O)NC(=O)/C(C)=C\C=C\[C@H](C)[C@H](O)[C@@H](C)[C@@H](O)[C@@H](C)[C@H](OC(C)=O)[C@@H]1C [Rifampin, rifampin] | 250 - 500 | 250 - 750 | 170 - 350 | 750 - 1500 | –
COc1cc(Cc2cnc(N)nc2N)cc(OC)c1OC [Trimetoprim] | 2 | – | 3 | 3 | –
